Test results reported in the CombiSolv-Exp solvation set (Vermeire and Green 2021).

Experiment: solvent given as SMILES

CCCCCCCCCCCCCCCCCCCCCCCCC
Conditions	solvation free energy, 298 K [kcal/mol]
in CC(=O)N(C)C	-17.1
in CC(C)(C)O	-15.3
in CN(C)C=O	-17.1
in COC(C)(C)C	-17.1
in O	5.39

CC=CCC
Conditions	solvation free energy, 298 K [kcal/mol]
in CN(C)C=O	-2.46

O=C1NC(=O)C(c2ccccc2)(c2ccccc2)N1
Conditions	solvation free energy, 298 K [kcal/mol]
in O	-16.7

ClC(Cl)(Cl)Cl
Conditions	solvation free energy, 298 K [kcal/mol]
in Brc1cccc2ccccc12	-3.92
in C1CCCC1	-4.4
in C1CCOC1	-4.65
in C1COCCO1	-4.32
in C=CCCCCCCCCCCCCCC	-3.81
in CC#N	-3.66
in CC(=O)CC(C)C	-4.22
in CC(=O)N(C)C	-4.52
in CC(=O)OCc1ccccc1	-3.97
in CC(C)(C)O	-3.74
in CC(C)=O	-4.15
in CC(C)CCCC(C)CCCC(C)CCCCC(C)CCCC(C)CCCC(C)C	-3.74
in CCC(C)=O	-4.15
in CCCCCC	-4.14
in CCCCCCC	-4.09
in CCCCCCCC	-3.98
in CCCCCCCCC=CCCCCCCCC(=O)OCC(COC(=O)CCCCCCCC=CCCCCCCCC)OC(=O)CCCCCCCC=CCCCCCCCC	-4
in CCCCCCCCCCCCCC	-3.8
in CCCCCCCCCCCCCCCC	-3.85
in CCCCCCCCCOC(=O)c1ccccc1C(=O)OCCCCCCCCC	-3.85
in CCCCCCCCN(CCCCCCCC)CCCCCCCC	-3.79
in CCCCCCCCO	-3.79
in CCCCCCO	-3.84
in CCCCCN(CCCCC)CCCCC	-3.96
in CCCCCl	-4.28
in CCCCN(C=O)CCCC	-4.11
in CCCCN(CCCC)CCCC	-3.84
in CCCCO	-3.87
in CCCCOC	-4.39
in CCCCOC(C)=O	-4.26
in CCCCOCC	-4.29
in CCCCOCCCC	-4.16
in CCCO	-3.75
in CCCOCCC	-4.25
in CCO	-3.74
in CCOC(=O)c1ccccc1C(=O)OCC	-3.77
in CCOC(C)=O	-4.23
in CCOCC	-4.41
in CI	-4.51
in CN1CCCC1=O	-4.16
in CNC(C)=O	-3.9
in CO	-3.66
in CS(C)=O	-3.66
in CSC	-4.63
in Cc1ccc(C)cc1	-4.35
in Cc1cccc(C)c1	-4.29
in Cc1ccccc1C	-4.34
in ClC(Cl)Cl	-4.43
in ClCCCl	-4.15
in NC=O	-2.16
in O	0.07
in O=C1CCCCC1	-4.32
in S=C=S	-4.52
in [2H]O[2H]	-0.62
in c1ccc2ncccc2c1	-4.07

CC(C)OC(C)(C)C
Conditions	solvation free energy, 298 K [kcal/mol]
in CC(=O)N(C)C	-3.75
in CCCCN(C=O)CCCC	-3.87
in CN1CCCCC1=O	-3.66
in CNC(C)=O	-3.62
in O	-1.01

C=C(C)C1CCC(C)C2=C(C1)C(C)CC2 (stereo not drawn)
Conditions	solvation free energy, 298 K [kcal/mol]
in O	-0.01

Sc1ccccc1
Conditions	solvation free energy, 298 K [kcal/mol]
in O	-2.55

C=CCCCCCCCC
Conditions	solvation free energy, 298 K [kcal/mol]
in CN(C)C=O	-5.12
in O	2.24
in OCCOCCO	-3.32
in OCCOCCOCCO	-3.58
in OCCOCCOCCOCCO	-3.78

CC(C)Nc1nc(Cl)nc(NC(C)C)n1
Conditions	solvation free energy, 298 K [kcal/mol]
in O	-9.55

II
Conditions	solvation free energy, 298 K [kcal/mol]
in Brc1ccccc1	-6.1
in CC(C)CC(C)(C)C	-4.5
in CCCCCC	-4.67
in CCCCCCC	-4.66
in CCCCCl	-5.63
in CCO	-6.27
in Cc1ccc(C)cc1	-6.21
in Cc1cccc(C)c1	-6.25
in Cc1ccccc1C	-6.23
in ClC(Cl)(Cl)Cl	-5.25
in ClC(Cl)Cl	-5.73
in ClCCCl	-5.72
in ClCCl	-5.62
in Clc1ccccc1	-5.81
in O	-2.54

Brc1ccccc1
Conditions	solvation free energy, 298 K [kcal/mol]
in C1CCOC1	-6.45
in C1COCCO1	-6.45
in CCCCCC	-5.66
in CCCCCCC	-5.72
in CCCCCCCCCC	-5.43
in CCCCCCCCCCCCCCCC	-5.47
in CN(C)C=O	-6.21
in COCCO	-5.73
in ClC(Cl)(Cl)Cl	-6.23
in NC=O	-4.11
in O	-1.46
in OCCO	-4.42

O=c1c2ccccc2sc2ccccc12
Conditions	solvation free energy, 298 K [kcal/mol]
in C1CCOC1	-13.2
in C1COCCO1	-12.9
in CC(C)CC(C)(C)C	-10.7
in CC(C)CCO	-11.8
in CC(C)CO	-11.7
in CC(C)O	-11.9
in CC(C)OC(C)C	-11.6
in CC(C)OCCO	-12.3
in CCC(C)O	-11.8
in CCCC(=O)OC	-12.5
in CCCC(C)CO	-11.9
in CCCC(C)O	-11.9
in CCCCC(CC)CO	-12
in CCCCCC	-10.9
in CCCCCCC	-11
in CCCCCCCC	-11.1
in CCCCCCCCC=CCCCCCCCC(=O)OCC(COC(=O)CCCCCCCC=CCCCCCCCC)OC(=O)CCCCCCCC=CCCCCCCCC	-11.8
in CCCCCCCCCCO	-12.1
in CCCCCCCCO	-12.1
in CCCCCCCO	-12
in CCCCCCO	-12
in CCCCCO	-11.9
in CCCCCOC(C)=O	-12.4
in CCCCO	-11.9
in CCCCOC(C)=O	-12.4
in CCCCOCCCC	-11.7
in CCCCOCCO	-12.4
in CCCO	-11.8
in CCCOCCO	-12.4
in CCO	-11.9
in CCOC(C)=O	-12.5
in CCOCCO	-12.4
in CO	-11.5
in COC(C)(C)C	-11.9
in COC(C)=O	-12.6
in Cc1ccc(C)cc1	-12.6
in Cc1cccc(C)c1	-12.6
in Cc1ccccc1C	-12.7
in O	-6.9

CCCCC(C)(C)O
Conditions	solvation free energy, 298 K [kcal/mol]
in CCCCCCCC	-5.29
in CCCCCCCCCC	-5.22

OC(CCl)CCl
Conditions	solvation free energy, 298 K [kcal/mol]
in CCCCOC(C)=O	-7.58
in Clc1ccccc1	-6.02

Cc1cccc(C)c1O
Conditions	solvation free energy, 298 K [kcal/mol]
in CC(C)CC(C)(C)C	-6.55
in O	-5.26

CCCCCCCCCCCCCCC
Conditions	solvation free energy, 298 K [kcal/mol]
in O	4.29
